The structures appear in SMILES notation. Positions of bridges follow the written chain, without caps; N, C: chain ends. Non-standard residues stand in square brackets, D forms with d. Residues, ends and D or L forms follow the SMILES beside them. *: point of attachment. Trp(7-Me) = Cc1cccc2c(C[C@H](N)C(=O)O)c[nH]c12; 2Nal = N[C@@H](Cc1ccc2ccccc2c1)C(=O)O; AEF = NCCOc1ccc(C[C@H](N)C(=O)O)cc1; dNMeY = CN[C@H](Cc1ccc(O)cc1)C(=O)O; 3Pal = N[C@@H](Cc1cccnc1)C(=O)O; Pen = CC(C)(S)[C@H](N)C(=O)O; αMeK = C[C@](N)(CCCCN)C(=O)O; dOrn = NCCC[C@@H](N)C(=O)O; Thp = NC1(C(=O)O)CCOCC1; Me2NCH2CH2 = CN(C)CC*

The nature of one series: Exposed Polar Surface Area (EPSA). The format is physicochemical. To be noted: SFC on Chirex 3014 column; sample 1 mM DMSO stock. From the text: Exposed Polar Surface Area (EPSA) is an experimental descriptor of molecular polarity obtained from chromatographic retention in supercritical fluid chromatography (SFC).
The stationary phase (Chirex 3014(S)-valine and (R)-1-(alpha-naphthyl) ethylamine) was selected for its balance of lipophilic and polar attributes and its capacity to separate compounds with wide polarity differences. The mobile phase consists of methanol (+Ammonium formate) and CO2. Polar compounds are retained stronger under these conditions and a low-slope gradient of methanol achieves elution based on increasing polarity of the mobile phase. Results are normalized using calibration standards generating a linear relationship between retention times and EPSA values. The unit of EPSA is Å^2.
Along with the measurement of compounds of interest, a series of 8 calibration standards (see Materials) are analyzed generating a linear relationship between retention times and EPSA value. The 8 compounds used as calibration standard have their own EPSA value defined by G. Goetz based on the comparison with TPSA (see G. Goetz, L. Philippe and M. Shapiro, “EPSA: A novel supercritical fluid chromatography technique enabling the design of permeable cyclic peptides,” ACS Med. Chem. Lett., vol. 5, pp. 1167-1172, 2014 for more information). The slope from the linear relationship between EPSA values of these eight compounds and their retention times is used to determine the EPSA value of each compound of interest that's measured under the same condition using the equation as below: […]
The mixture of calibrations standard is reinjected every 20 compounds to validate the stability of the retention time.
The mobile phase modifier consists of ammonium formate LC_MS grade (>99%) (CAS number 540-69-2) diluted to 20 mM in HPLC grade Methanol (MeOH, CAS number 67-56-1) and liquid C02 SFC grade (CAS number 124-38-9).
Antipyrine (CAS number: 60-80-0) Chlorpromazine hydrochloride (CAS number: 69-09-0), desipramine hydrochloride (CAS number: […]), pindolol (CAS Number: 13523-86-9), diclofenac (CAS number: 15307-79-6)), m-nitro benzoic acid (CAS number: 121-92-6), bumetanide (CAS number: 28395-03-1), furosemide (CAS number: 54-31-9) were purchased from Sigma Aldrich (Steihneim, Germany).
All analyses were performed on a ultra performance convergence chromatography (UPC™) apparatus (Waters, Milford, MA, USA) equipped with a sample manager, a binary solvent delivery pump (BSM), a column manager, a convergence manager (automated back pressure regulator), a photo diode array detector (DAD) with a high pressure flow cell, and a mass detector simple quadrupole QDa. After the UV detector, the effluent of the SFC was mixed with an eluent consist of mixture MeOH/water (+0.3% Ammonia) 95/5 delivered by a make up pump with a flow rate of 0.4 mL/min and then split to the QDa using a splitter. The instrument was controlled, and data were processed with Masslynx 4.1.
The Analyses were performed using a 4.6×50 mm Chirex 3014(S)-valine and (R)-1-(alpha- naphthyl) ethylamine column (Phenomenex, Le Pecq, France) with 5 um particle and 100A pore size. The flow rate was 4 mL/min with the outlet pressure set to 14 MPa. The injection volume was 2 μL. the mobile phase composition was varied from 5% to 60% modifier at 20%/ min in a linear gradient, holding at 60% for 1.45 min and reverting to the original 5% until the end of the run. Data are acquired during 5 min. An equilibration time of 1 min is applied between 2 injections resulting in an injection every 6 min. each sample is analyzed in duplicate, resulting in a sample to sample turnaround time of 12 min.
The column temperature was set to 35° C. The mass detector was used in full scan from 100 to 800 for small molecules and from 500 to 1200 for peptides.
Each sample is delivered by compound logistics from DMSO stock solution without dilution. The concentration is 1 mM and the volume is 60 μL.
Consider `CC(=O)NCCCC[C@H](NC(=O)[C@](C)(CCCCN)NC(=O)[C@H](Cc1ccc2ccccc2c1)NC(=O)[C@H](Cc1ccc(OCCN)cc1)NC(=O)[C@H]1NC(=O)[C@H](Cc2ccc(O)cc2)NC(=O)[C@H](Cc2c[nH]c3c(C)cccc23)NC(=O)[C@H]([C@@H](C)O)NC(=O)[C@H](CC(N)=O)NC(=O)[C@@H](NC(C)=O)C(C)(C)SSC1(C)C)C(=O)N[C@@H](CC(N)=O)C(=O)N[C@H](CCCCN)C(=O)N(C)[C@H](Cc1ccc(O)cc1)C(N)=O` [compound 21, MeCO-Pen(3)-N-T-7MeW-Y-Pen(3)-AEF-2Nal-aMeK-K(Ac)-N-k-NMeDTyr-CONH2] (Ac-[Pen]NT[Trp(7-Me)]Y[Pen][AEF][2Nal][αMeK]K(Ac)N[dK][dNMeY]-NH2; disulfide 1-6 (inferred)), for which the EPSA is 170.27 Å^2.

The same series, now with this note: SFC on Chirex 3014 column; sample 1 mM DMSO stock; read-out: EPSA.
Regarding `CC(=O)NCCCC[C@@H]1NC(=O)[C@H](Cc2c[nH]c3c(C)cccc23)NC(=O)[C@H]([C@@H](C)O)NC(=O)[C@H](CC(N)=O)NC(=O)[C@@H](NC(C)=O)C(C)(C)SSC(C)(C)[C@@H](C(=O)N[C@@H](Cc2ccc(OCCN)cc2)C(=O)N[C@@H](Cc2ccc3ccccc3c2)C(=O)N[C@@](C)(CCCCN)C(=O)N[C@@H](CCCCNC(C)=O)C(=O)N[C@@H](CC(N)=O)C(=O)N[C@@H](C(=O)N(C)[C@H](Cc2ccc(O)cc2)C(N)=O)C(C)C)NC1=O` [compound 14, MeCO-Pen(3)-N-T-7MeW-K(Ac)-Pen(3)-AEF-2Nal-aMeK-K(Ac)-N-v-NMeDTyr-CONH2] (Ac-[Pen]NT[Trp(7-Me)]K(Ac)[Pen][AEF][2Nal][αMeK]K(Ac)N[dV][dNMeY]-NH2; disulfide 1-6), the EPSA came out at 166 A^2.
Still for that read-out and setting: as for `CC(=O)NCCCC[C@@H]1NC(=O)[C@H](Cc2c[nH]c3c(C)cccc23)NC(=O)[C@H]([C@@H](C)O)NC(=O)[C@H](CC(N)=O)NC(=O)[C@@H](NC(C)=O)C(C)(C)SSC(C)(C)[C@@H](C(=O)N[C@@H](Cc2ccc(OCCN)cc2)C(=O)N[C@@H](Cc2ccc3ccccc3c2)C(=O)N[C@@](C)(CCCCN)C(=O)N[C@@H](CCCCNC(C)=O)C(=O)N[C@@H](CC(N)=O)C(=O)N[C@@H](C(=O)N(C)[C@H](Cc2ccc(O)cc2)C(N)=O)[C@H](C)O)NC1=O` [compound 15, MeCO-Pen(3)-N-T-7MeW-K(Ac)-Pen(3)-AEF-2Nal-aMeK-K(Ac)-N-t-NMeDTyr-CONH2] (Ac-[Pen]NT[Trp(7-Me)]K(Ac)[Pen][AEF][2Nal][αMeK]K(Ac)N[dT][dNMeY]-NH2; disulfide 1-6 (inferred)), the figure is 168 A^2.
With `CC(=O)NCCCC[C@@H]1NC(=O)[C@H](Cc2c[nH]c3c(C)cccc23)NC(=O)[C@H]([C@@H](C)O)NC(=O)[C@H](CC(N)=O)NC(=O)[C@@H](NC(C)=O)C(C)(C)SSC(C)(C)[C@@H](C(=O)N[C@@H](Cc2ccc(OCCN)cc2)C(=O)N[C@@H](Cc2ccc3ccccc3c2)C(=O)N[C@@](C)(CCCCN)C(=O)N[C@@H](CCCCNC(C)=O)C(=O)N[C@@H](CC(N)=O)C(=O)N[C@H](CCCN)C(=O)N(C)[C@H](Cc2ccc(O)cc2)C(N)=O)NC1=O` [compound 18, MeCO-Pen(3)-N-T-7MeW-K(Ac)-Pen(3)-AEF-2Nal-aMeK-K(Ac)-N-orn-NMeDTyr-CONH2] (Ac-[Pen]NT[Trp(7-Me)]K(Ac)[Pen][AEF][2Nal][αMeK]K(Ac)N[dOrn][dNMeY]-NH2; disulfide 1-6), the EPSA was 219 A^2.
On the same count and under the same terms, under `CC(=O)NCCCC[C@@H]1NC(=O)[C@H](Cc2c[nH]c3c(C)cccc23)NC(=O)[C@H]([C@@H](C)O)NC(=O)[C@H](CC(N)=O)NC(=O)[C@@H](NC(C)=O)C(C)(C)SSC(C)(C)[C@@H](C(=O)N[C@@H](Cc2ccc(OCCN)cc2)C(=O)N[C@@H](Cc2ccc3ccccc3c2)C(=O)N[C@@](C)(CCCCN)C(=O)N[C@@H](CCCCNC(C)=O)C(=O)N[C@@H](CC(N)=O)C(=O)N[C@H](CO)C(=O)N(C)[C@H](Cc2ccc(O)cc2)C(N)=O)NC1=O` [compound 19, MeCO-Pen(3)-N-T-7MeW-K(Ac)-Pen(3)-AEF-2Nal-aMeK-K(Ac)-N-s-NMeDTyr-CONH2] (Ac-[Pen]NT[Trp(7-Me)]K(Ac)[Pen][AEF][2Nal][αMeK]K(Ac)N[dS][dNMeY]-NH2; disulfide 1-6) stands 171 A^2; under `CC(=O)NCCCC[C@@H]1NC(=O)[C@H](Cc2c[nH]c3c(C)cccc23)NC(=O)[C@H]([C@@H](C)O)NC(=O)[C@H](CC(N)=O)NC(=O)[C@@H](NC(C)=O)C(C)(C)SSC(C)(C)[C@@H](C(=O)N[C@@H](Cc2ccc(OCCN)cc2)C(=O)N[C@@H](Cc2ccc3ccccc3c2)C(=O)N[C@@](C)(CCCCN)C(=O)N[C@@H](CCCCNC(C)=O)C(=O)N[C@@H](CC(N)=O)C(=O)N[C@H](Cc2ccccc2)C(=O)N(C)[C@H](Cc2ccc(O)cc2)C(N)=O)NC1=O` [compound 20, MeCO-Pen(3)-N-T-7MeW-K(Ac)-Pen(3)-AEF-2Nal-aMeK-K(Ac)-N-f-NMeDTyr-CONH2] (Ac-[Pen]NT[Trp(7-Me)]K(Ac)[Pen][AEF][2Nal][αMeK]K(Ac)N[dF][dNMeY]-NH2; disulfide 1-6 (inferred)), 168 A^2.
Consider `CC(=O)NCCCC[C@H](NC(=O)[C@](C)(CCCCN)NC(=O)[C@H](Cc1ccc2ccccc2c1)NC(=O)[C@H](Cc1ccc(OCCN)cc1)NC(=O)[C@H]1NC(=O)[C@H](Cc2ccc(O)cc2)NC(=O)[C@H](Cc2c[nH]c3c(C)cccc23)NC(=O)[C@H]([C@@H](C)O)NC(=O)[C@H](CC(N)=O)NC(=O)[C@@H](NC(C)=O)C(C)(C)SSC1(C)C)C(=O)N[C@@H](CC(N)=O)C(=O)N[C@H](CCCCN)C(=O)N(C)[C@H](Cc1ccc(O)cc1)C(N)=O` [compound 21, MeCO-Pen(3)-N-T-7MeW-Y-Pen(3)-AEF-2Nal-aMeK-K(Ac)-N-k-NMeDTyr-CONH2] (Ac-[Pen]NT[Trp(7-Me)]Y[Pen][AEF][2Nal][αMeK]K(Ac)N[dK][dNMeY]-NH2; disulfide 1-6 (inferred)), for which the EPSA came out at 152 A^2.
Still for that read-out and setting: as for `CC(=O)NCCCC[C@@H]1NC(=O)[C@H](Cc2c[nH]c3c(C)cccc23)NC(=O)[C@H]([C@@H](C)O)NC(=O)[C@H](CC(N)=O)NC(=O)[C@@H](NC(C)=O)C(C)(C)SSC(C)(C)[C@@H](C(=O)N[C@@H](Cc2ccc(OCCN)cc2)C(=O)N[C@@H](Cc2ccc3ccccc3c2)C(=O)N[C@@](C)(CCCCN)C(=O)N[C@@H](CCCCNC(C)=O)C(=O)N[C@@H](CC(N)=O)C(=O)N[C@H](Cc2c[nH]cn2)C(=O)N(C)[C@H](Cc2ccc(O)cc2)C(N)=O)NC1=O` [compound 26, MeCO-Pen(3)-N-T-7MeW-K(Ac)-Pen(3)-AEF-2Nal-aMeK-K(Ac)-N-h-NMeDTyr-CONH2] (Ac-[Pen]NT[Trp(7-Me)]K(Ac)[Pen][AEF][2Nal][αMeK]K(Ac)N[dH][dNMeY]-NH2; disulfide 1-6 (inferred)), the figure is 148 A^2.
The same measure, in the same setting: as for `CC(=O)NCCCC[C@@H]1NC(=O)[C@H](Cc2c[nH]c3c(C)cccc23)NC(=O)[C@H]([C@@H](C)O)NC(=O)[C@H](CC(N)=O)NC(=O)[C@@H](NC(C)=O)C(C)(C)SSC(C)(C)[C@@H](C(=O)N[C@@H](Cc2ccc(OCCN)cc2)C(=O)N[C@@H](Cc2ccc3ccccc3c2)C(=O)N[C@@](C)(CCCCN)C(=O)N[C@@H](CCCCNC(C)=O)C(=O)N[C@@H](CC(N)=O)C(=O)N[C@@H](Cc2cccnc2)C(=O)N(C)[C@H](Cc2ccc(O)cc2)C(N)=O)NC1=O` [compound 30, MeCO-Pen(3)-N-T-7MeW-K(Ac)-Pen(3)-AEF-2Nal-aMeK-K(ac)-N-3Pya-NMeDTyr-CONH2] (Ac-[Pen]NT[Trp(7-Me)]K(Ac)[Pen][AEF][2Nal][αMeK]K(Ac)N[3Pal][dNMeY]-NH2; disulfide 1-6), the figure is 166 A^2.
With `CC(=O)NCCCC[C@@H]1NC(=O)[C@H](Cc2c[nH]c3c(C)cccc23)NC(=O)[C@H]([C@@H](C)O)NC(=O)[C@H](CC(N)=O)NC(=O)[C@@H](NC(C)=O)C(C)(C)SSC(C)(C)[C@@H](C(=O)N[C@@H](Cc2ccc(OCCN(C)C)cc2)C(=O)N[C@@H](Cc2ccc3ccccc3c2)C(=O)N[C@@](C)(CCCCN)C(=O)N[C@@H](CCCCNC(C)=O)C(=O)N[C@@H](CC(N)=O)C(=O)NC2(C(N)=O)CCOCC2)NC1=O` [compound 31] (Ac-[Pen]NT[Trp(7-Me)]K(Ac)[Pen]Y(Me2NCH2CH2)[2Nal][αMeK]K(Ac)N[Thp]-NH2; disulfide 1-6), the EPSA was determined as 158 A^2.

The values above are taken from patent US20260022143A1, “Cyclic Peptide Inhibitors of IL-23” (JANSSEN PHARMACEUTICA NV, priority 2022, published 2026).
